Test results: BindingDB's records for patent US10723705 (Incyte, 2020)

Target: T1, Histone deacetylase 8 (Homo sapiens, UniProt Q9BY41)
T1 sequence (Q9BY41 whole entry): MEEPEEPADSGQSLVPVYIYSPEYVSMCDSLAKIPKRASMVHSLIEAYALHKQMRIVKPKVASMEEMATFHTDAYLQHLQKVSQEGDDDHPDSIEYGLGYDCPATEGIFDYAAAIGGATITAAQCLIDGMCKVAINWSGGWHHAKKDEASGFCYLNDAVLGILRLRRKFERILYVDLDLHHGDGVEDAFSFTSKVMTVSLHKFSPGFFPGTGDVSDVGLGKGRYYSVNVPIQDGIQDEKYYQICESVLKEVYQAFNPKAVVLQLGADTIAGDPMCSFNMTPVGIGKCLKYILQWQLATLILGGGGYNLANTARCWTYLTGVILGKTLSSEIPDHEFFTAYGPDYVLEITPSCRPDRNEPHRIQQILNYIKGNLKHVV
Assay: Enzymatic Assay
Description: HDAC-Glo I/II Assay Kit was purchased from Promega Corporation (Madison, Wis.), including the following components: HDAC-Glo I/II Buffer (25 mM Tris buffer, pH 8.0, supplemented with 137 mM: NaCl, 2.7 mM KCl, 1% v/v Triton X-100 and 1 mM: MgCl2), luminogenic substrates Boc-GAK(Ac)-aminoluciferin (HDAC-Glo I/II substrate), proprietary developer reagent (containing trypsin). Assay:The HDAC8 reaction was performed at room temperature in white 384-well polystyrene, flat-bottom microtiter plate (Greiner Bio-one, Monroe, N.C.) in a final volume of 20 μL. Test compounds were first diluted serially in DMSO and 100 nL were transferred to the plate wells by Echo 550 (Labcyte, Sunnyvale, Calif.) before the addition of other reaction components. The final concentration of DMSO in the assay was 0.5%. The HDAC-Glo I/II assay reagent was prepared by rehydration of lyophilized HDAC-Glo I/II substrate in 10 mL. HDAC-Glo I/II assay buffer followed with the addition of 10 μL of developer reagent. 10 uL of 3 nM HDAC8 in the HDAC-Glo I/II assay buffer were first dispensed into the microliter plate containing the compounds and incubated at room temperature for 30 min. The reactions were initiated with the addition of 10 uL HDAC-Glo I/II assay reagent with Multidrop.

IC50, in the range around 375 nM:
O=C(NO)C(Cc1ccccc1)N1N=CC2C(Cl)=NC=CC21 (stereo not drawn) [US10723705, No. I-0055]
O=C(NO)C(Cc1ccccc1)N1C=CC2C=C(Cl)C=NC21 (stereo not drawn) [US10723705, No. I-0195]
O=C(NO)C(Cc1ccccc1)N1C=CC2C(Cl)=NC=CC21 (stereo not drawn) [US10723705, No. I-0196]
